Results published in patent US20150031102A1, “METHODS AND COMPOSITIONS FOR ENHANCED PRODUCTION OF BUTANOL BY CLOSTRIDIA” (Butrolix LLC, priority 2012, published 2015).

Test system: Clostridium acetobutylicum strain ATCC 824
Experiment: Sequential batch transfer in 24-well culture plates (butanol, residual glucose, butanol yield and productivity)
Format: cell-based
Conditions: after 96 hours of culture; for Residual glucose concentration: initial glucose 60 g/L
Experimental: Each well contained 1.5 mL of growth medium. Peptide was added to each well at the indicated concentration (0, 25, 50, and 100 nM). Every 24 hours fresh medium and peptide treatment were added to a new column of wells then 1.5 μL of the previous day culture was transferred to the new well. Wells were harvested for glucose and butanol analysis after 96 hours of growth. Transfers 1, 4, 7, 10, 13, 16, […].
Briefly, Clostridium spores were germinated in a suitable growth medium for 18-24 hours then […] was transferred to 1.5 mL of fresh medium in each of four wells on a 24-well culture plate. Three of the wells had been treated with 25 nM, 50 nM and 100 nM of peptide, respectively while the fourth well was untreated. Thereafter, every 24 hours […] of each subculture was transferred to 1.5 mL of fresh medium that contained the same peptide treatment or no treatment. Transfers of successive subcultures were done for 24 days, and each subculture was grown for 96 hours before being harvested. Culture supernatants were recovered following centrifugation and were analyzed for butanol and residual glucose concentrations. Determination of optimum peptide treatment levels was based on a graphical comparison of the concentration of butanol in each of the four culture wells for sequential transfers 1, 4, 7, 10, 13, 16, 19, 22 and 24.
Clostridium acetobutylicum strain ATCC 824 was used in all experiments and the growth medium used for sequential batch transfer, time course, and continuous culture experiments contained yeast extract, casamino acids, L-cysteine, L-asparagine, phosphate buffer, trace minerals, and 6% glucose. What are believed to be quorum-sensing peptides that were used in the experiments were chemically synthesized peptides SEQ ID NO: 143 (amino acid sequence: SYPGWSW) and SEQ ID NO: 144 (amino acid sequence: ILILISG). Routine growth of the bacteria as well as the sequential batch and time course experiments were conducted in a Form a Scientific Model 1029 anaerobic gas chamber at 32° C. Continuous cultures were performed at 32° C. using duplicate New Brunswick Scientific BioFlo 3000 apparati with a dilution rate of 0.01 volume per hour, 75 rpm agitation, and nitrogen gas sparging. Optical density of culture samples was measured at 600 nm in a Beckman DU 600 series spectrophotometer and glucose was analyzed using a YSI Model 2700 Select Biochemistry Analyzer with internal glucose calibration. Butanol concentrations were determined by measuring experimental and standard samples using a Varian Saturn 3 Gas Chromatograph/Mass Spectrometer and calculating butanol concentrations using standard curves.
(§1) Sequential batch transfer experiments were carried out in 24-well culture plates that contained 1.5 mL of medium per well. Peptide was added to each well at the indicated concentrations of 0 nM (control), 25 nM, 50 nM, or 100 nM. Every 24 hours, fresh medium and peptide treatments were added to a new column of wells. Then, 1.5 uL of the previous day culture was transferred to the new well. Wells were harvested for glucose and butanol analysis after 96 hours of growth; transfers 1, 4, 7, 10, 13, 16, 19, 22, and 24 were analyzed. Two representative experiments are shown in Tables 30 and 31 and FIGS. 14 and 15.
as §1, with “32” for “30”, “33” for “31”, “16” for “14”, “17.” for “15.”

[1] = 25 nM peptide, transfer 1, Expt. 1
[2] = 25 nM peptide, transfer 4, Expt. 1
[3] = 25 nM peptide, transfer 7, Expt. 1
[4] = 25 nM peptide, transfer 10, Expt. 1
[5] = 25 nM peptide, transfer 13, Expt. 1
[6] = 25 nM peptide, transfer 16, Expt. 1
[7] = 25 nM peptide, transfer 19, Expt. 1
[8] = 25 nM peptide, transfer 22, Expt. 1
[9] = 25 nM peptide, transfer 24, Expt. 1
[10] = 50 nM peptide, transfer 1, Expt. 1
[11] = 50 nM peptide, transfer 4, Expt. 1
[12] = 50 nM peptide, transfer 7, Expt. 1
[13] = 50 nM peptide, transfer 10, Expt. 1
[14] = 50 nM peptide, transfer 13, Expt. 1
[15] = 50 nM peptide, transfer 16, Expt. 1

Substance: ILILISG (Derived from Clostridium acetobutylicum SEQ ID NO: 110) [peptide SEQ ID NO: 144]
- Butanol concentration [1]: 1.93 g/L
- Butanol productivity [1]: 0.02 g butanol/L-h
- Butanol yield [1]: 0.03 g butanol/g/glucose
- Butanol concentration (25 nM peptide, transfer 1, Expt. 2 (repeat), Table 58): 1.25 g/L
- Residual glucose concentration [1]: 43.3 g/L
- Residual glucose concentration (25 nM peptide, transfer 1, Expt. 2 (repeat), Table 45): 48.7 g/L
- Butanol concentration [2]: 10.01 g/L
- Butanol productivity [2]: 0.10 g butanol/L-h
- Butanol yield [2]: 0.17 g butanol/g/glucose
- Butanol concentration (25 nM peptide, transfer 4, Expt. 2 (repeat), Table 58): 2.36 g/L
- Residual glucose concentration [2]: 0.0 g/L
- Residual glucose concentration (25 nM peptide, transfer 4, Expt. 2 (repeat), Table 45): 43.6 g/L
- Butanol concentration [3]: 7.82 g/L
- Butanol productivity [3]: 0.08 g butanol/L-h
- Butanol yield [3]: 0.13 g butanol/g/glucose
- Butanol concentration (25 nM peptide, transfer 7, Expt. 2 (repeat), Table 58): 2.26 g/L
- Residual glucose concentration [3]: .01 g/L
- Residual glucose concentration (25 nM peptide, transfer 7, Expt. 2 (repeat), Table 45): 46.5 g/L
- Butanol concentration [4]: 11.88 g/L
- Butanol productivity [4]: 0.12 g butanol/L-h
- Butanol yield [4]: 0.20 g butanol/g/glucose
- Butanol concentration (25 nM peptide, transfer 10, Expt. 2 (repeat), Table 58): 3.56 g/L
- Residual glucose concentration [4]: 0.1 g/L
- Residual glucose concentration (25 nM peptide, transfer 10, Expt. 2 (repeat), Table 45): 42.5 g/L
- Butanol concentration [5]: 7.56 g/L
- Butanol productivity [5]: 0.08 g butanol/L-h
- Butanol yield [5]: 0.13 g butanol/g/glucose
- Butanol concentration (25 nM peptide, transfer 13, Expt. 2 (repeat), Table 58): 9.51 g/L
- Residual glucose concentration [5]: 0.1 g/L
- Residual glucose concentration (25 nM peptide, transfer 13, Expt. 2 (repeat), Table 45): 0.9 g/L
- Butanol concentration [6]: 8.33 g/L
- Butanol productivity [6]: 0.09 g butanol/L-h
- Butanol yield [6]: 0.14 g butanol/g/glucose
- Butanol concentration (25 nM peptide, transfer 16, Expt. 2 (repeat), Table 58): 12.57 g/L
- Residual glucose concentration [6]: 0.0 g/L
- Residual glucose concentration (25 nM peptide, transfer 16, Expt. 2 (repeat), Table 45): 0.1 g/L
- Butanol concentration [7]: 7.52 g/L
- Butanol productivity [7]: 0.08 g butanol/L-h
- Butanol yield [7]: 0.12 g butanol/g/glucose
- Butanol concentration (25 nM peptide, transfer 19, Expt. 2 (repeat), Table 58): 4.42 g/L
- Residual glucose concentration [7]: 0.1 g/L
- Residual glucose concentration (25 nM peptide, transfer 19, Expt. 2 (repeat), Table 45): 0.1 g/L
- Butanol concentration [8]: 13.47 g/L
- Butanol productivity [8]: 0.14 g butanol/L-h
- Butanol yield [8]: 0.22 g butanol/g/glucose
- Butanol concentration (25 nM peptide, transfer 22, Expt. 2 (repeat), Table 58): 3.65 g/L
- Residual glucose concentration [8]: 9.9 g/L
- Residual glucose concentration (25 nM peptide, transfer 22, Expt. 2 (repeat), Table 45): 0.1 g/L
- Butanol concentration [9]: 7.27 g/L
- Butanol productivity [9]: 0.08 g butanol/L-h
- Butanol yield [9]: 0.12 g butanol/g/glucose
- Butanol concentration (25 nM peptide, transfer 24, Expt. 2 (repeat), Table 58): 2.75 g/L
- Residual glucose concentration [9]: 0.0 g/L
- Residual glucose concentration (25 nM peptide, transfer 24, Expt. 2 (repeat), Table 45): 0.1 g/L
- Butanol concentration [10]: 1.90 g/L
- Butanol productivity [10]: 0.02 g butanol/L-h
- Butanol yield [10]: 0.03 g butanol/g/glucose
- Butanol concentration (50 nM peptide, transfer 1, Expt. 2 (repeat), Table 58): 1.29 g/L
- Residual glucose concentration [10]: 41.8 g/L
- Residual glucose concentration (50 nM peptide, transfer 1, Expt. 2 (repeat), Table 45): 47.4 g/L
- Butanol concentration [11]: 9.57 g/L
- Butanol productivity [11]: 0.10 g butanol/L-h
- Butanol yield [11]: 0.16 g butanol/g/glucose
- Butanol concentration (50 nM peptide, transfer 4, Expt. 2 (repeat), Table 58): 2.24 g/L
- Residual glucose concentration [11]: 0.0 g/L
- Residual glucose concentration (50 nM peptide, transfer 4, Expt. 2 (repeat), Table 45): 44.9 g/L
- Butanol concentration [12]: 7.58 g/L
- Butanol productivity [12]: 0.08 g butanol/L-h
- Butanol yield [12]: 0.13 g butanol/g/glucose
- Butanol concentration (50 nM peptide, transfer 7, Expt. 2 (repeat), Table 58): 1.98 g/L
- Residual glucose concentration [12]: 0.0 g/L
- Residual glucose concentration (50 nM peptide, transfer 7, Expt. 2 (repeat), Table 45): 49.8 g/L
- Butanol concentration [13]: 11.09 g/L
- Butanol productivity [13]: 0.12 g butanol/L-h
- Butanol yield [13]: 0.18 g butanol/g/glucose
- Butanol concentration (50 nM peptide, transfer 10, Expt. 2 (repeat), Table 58): 2.26 g/L
- Residual glucose concentration [13]: 0.0 g/L
- Residual glucose concentration (50 nM peptide, transfer 10, Expt. 2 (repeat), Table 45): 48.0 g/L
- Butanol concentration [14]: 7.90 g/L
- Butanol productivity [14]: 0.08 g butanol/L-h
- Butanol yield [14]: 0.13 g butanol/g/glucose
- Butanol concentration (50 nM peptide, transfer 13, Expt. 2 (repeat), Table 58): 4.58 g/L
- Residual glucose concentration [14]: 0.1 g/L
- Residual glucose concentration (50 nM peptide, transfer 13, Expt. 2 (repeat), Table 45): 49.1 g/L
- Butanol concentration [15]: 9.34 g/L
- Butanol productivity [15]: 0.10 g butanol/L-h
- Butanol yield [15]: 0.15 g butanol/g/glucose
- Butanol concentration (50 nM peptide, transfer 16, Expt. 2 (repeat), Table 58): 3.34 g/L
- Residual glucose concentration [15]: 0.0 g/L
- Residual glucose concentration (50 nM peptide, transfer 16, Expt. 2 (repeat), Table 45): 47.7 g/L
